Reference: patent US11872238B2, “Nutritional composition for use to enhance attention and/or reduce impulsivity” (SOCIETE DES PRODUITS NESTLE S.A., priority 2017, dated 2024)

Key:
[1] = test system: mouse pups; experiment: Neurodevelopmental milestones: onset and strength of reflexes on the Fox scale; assay type: in vivo; settings: mouse pups receiving milk absent of 6′-SL, compared with pups receiving milk comprising 6′-SL
Method: (§1) This effects were observed on a background of no changes in term of neurodevelopment evaluated by the onset and strength of reflexes using the Fox scale.
On PND3, PND7, and PND12 mice were evaluated for the onset of neurodevelopmental milestones through the administration of Fox scales. The latter consist of a series of rapid tests to evaluate the maturity of a series of reflexes: righting (capability of mice to turn over with all four paws on the ground when placed on its back); grasping (the mouse is placed on a wire-mesh grid which is progressively tilted until the subject harmlessly falls on a soft surface, positioned 2 cm below the grid); cliff aversion (which measures the capability of mice to withdraw from a perceived visual cliff). Furthermore, pups' bodyweight and body length were constantly monitored throughout development.

[2] = test system: mouse pups; experiment: Cross-fostering study of WT and St6Gal1 KO (6SL KO) mouse pups reared to WT or KO dams, with cognitive tests (T-maze, pre-pulse inhibition, Barnes maze, attentional set-shifting) in adulthood; assay type: in vivo; settings: mouse pups receiving milk absent of 6′-SL, compared with pups receiving milk comprising 6′-SL; evaluated as adults
Source text: as §1
Adult wild-type (WT) B6.129 and heterozygous (HZ) B6.129-St6gal1^tm2Jxm breeding pairs (four males and four females and three males and four females, respectively) were purchased from a commercial breeder (The Jackson Laboratory). Upon arrival, same-sex mice were housed in same-sex groups of 2-3 in type-1 polycarbonate cages (33.0×13.0×14.0 cm) equipped with sawdust bedding, an enrichment bag (Mucedola, Settimo Milanese, Italy), metal top and ad libitum water and food pellets (Mucedola, Settimo Milanese, Italy). Mice were maintained on a reversed 12-h-light-dark cycle (light on at 7:00 PM) in an air-conditioned room (temperature 21±1° C. and relative humidity 60±10%). Two weeks after arrival, breeding triads (one male, two females) were formed. After two weeks of mating, male mice were removed and females were housed individually in standard type-1 cages. Females were checked daily for delivery and the day in which they gave birth was designated as postnatal day (PND) 0. Apart from cage cleaning once a week, dams and their offspring were kept undisturbed until weaning (on PND 25). […]
The aforementioned subjects have then been evaluated for neurodevelopmental milestones, cognitive capabilities (inc. attention) as outlined in figure two. […]

neurodevelopment evaluated by the onset and strength of reflexes using the Fox scale [1]: no changes
Compound: CC(=O)N[C@H]1[C@H]([C@H](O)[C@H](O)CO)O[C@@](OC[C@H]2O[C@@H](O[C@H]3[C@H](O)[C@@H](O)C(O)O[C@@H]3CO)[C@H](O)[C@@H](O)[C@H]2O)(C(=O)O)C[C@@H]1O (stereo partly drawn) [6′-sialyllactose, (6R)-5-Acetamido-3,5-dideoxy-6-[(1R,2R)-1,2,3-trihydroxypropyl]-β-L-threo-hex-2-ulopyranonosyl-(2->6)-β-D-galactopyranosyl-(1->4)-D-glucopyranose]
attention [2]: decreased attention
impulsivity [2]: increased impulsivity
